# Reference: patent US20020192703A1, “Immunoassay reagents and methods for determination of LSD and LSD metabolites” (priority 1995, published 2002)
# Tests used:
# central nervous system = conditions: hallucinations, distortions in sensory perception, mood changes; cited from earlier work
# [1] = in man; calculated; cited from earlier work
# monoclonal antibody 19A7 = assay type: binding, mice; conditions: Concentration Added 0.5 ng/ml
# Experimental: Cross-reactivity was tested by spiking various potential cross-reactants into human urine containing a preservative.
# [2] = Urine time course after LSD administration, GC/MS; assay type: in vivo; conditions: human
# Experimental: In this example, experiments were performed to better define the time course of excretion of LSD metabolites in urine, and the ability of various immunoassays to detect them.
# Individuals were administered LSD, and urine samples were collected over a four-day period. The samples were assayed using the LSD enzyme-complementation immunoassay described in Examples 9 and 10 using monoclonal antibody 19A7. The samples were also measured using the DPC radioimmunoassay (“Coat-A-Count”® LSD assay, by Diagnostic Products Company) according to manufacturer's directions, and by GC/MS).
# Results are shown in the following table in terms of LSD equivalents (translating the signal generated using a standard curve obtained with known concentrations of LSD).
structure (smiles),measurement,setting,value
"CCN(CC)C(=O)[C@@H]1C=C2c3cccc4[nH]cc(c34)C[C@H]2N(C)C1 [LSD, lysergic acid diethylamide]",Oral doses that can cause central nervous system disturbances (as low as),central nervous system,25 µg
same,plasma half-life,[1],about 3 hours
same,% Cross-Reactivity,monoclonal antibody 19A7; 100 × observed dose / concentration added,100.00%
same,Concentration Observed,monoclonal antibody 19A7; in human urine,0.5 ng/mL
same,concentration at 4 h,"[2]; urine sample JS U3, 4 hrs after LSD administration",0.39 ng/mL
same,concentration at 6 h,"[2]; urine sample JS U4, 6 hrs after LSD administration",0.37 ng/mL
same,concentration at 8 h,"[2]; urine sample JS U5, 8 hrs after LSD administration",0.38 ng/mL
same,concentration at 10 h,"[2]; urine sample JS U6, 10 hrs after LSD administration",0.64 ng/mL
same,concentration at 12 h,"[2]; urine sample JS U7, 12 hrs after LSD administration",0.52 ng/mL
same,concentration at 24 h,"[2]; urine sample JS U8, 24 hrs after LSD administration",0.34 ng/mL
same,concentration at 36 h,"[2]; urine sample JS U9, 36 hrs after LSD administration",0.03 ng/mL
same,concentration at 48 h,"[2]; urine sample JS U10, 48 hrs after LSD administration",0.01 ng/mL
same,concentration at 60 h,"[2]; urine sample JS U11, 60 hrs after LSD administration",0 ng/mL
same,concentration at 72 h,"[2]; urine sample JS U12, 72 hrs after LSD administration",0.02 ng/mL
same,concentration at 84 h,"[2]; urine sample JS U13, 84 hrs after LSD administration",0 ng/mL
same,concentration at 98 h,"[2]; urine sample JS U14, 98 hrs after LSD administration",0 ng/mL
same,concentration at 2 h,"[2]; urine sample SW U2, 2 hrs after LSD administration",0.33 ng/mL
same,concentration at 4 h,"[2]; urine sample SW U3, 4 hrs after LSD administration",0.54 ng/mL
same,concentration at 8 h,"[2]; urine sample SW U4, 8 hrs after LSD administration",0.52 ng/mL
same,concentration at 8 h,"[2]; urine sample SW U5, 8 hrs after LSD administration",0.71 ng/mL
same,concentration at 10 h,"[2]; urine sample SW U6, 10 hrs after LSD administration",0.76 ng/mL
same,concentration at 12 h,"[2]; urine sample SW U7, 12 hrs after LSD administration",1.77 ng/mL
same,concentration at 24 h,"[2]; urine sample SW U8, 24 hrs after LSD administration",1.42 ng/mL
same,concentration at 36 h,"[2]; urine sample SW U9, 36 hrs after LSD administration",0.11 ng/mL
same,concentration at 48 h,"[2]; urine sample SW U10, 48 hrs after LSD administration",0.04 ng/mL
same,concentration at 60 h,"[2]; urine sample SW U11, 60 hrs after LSD administration",0.02 ng/mL
same,concentration at 72 h,"[2]; urine sample SW U12, 72 hrs after LSD administration",0 ng/mL
same,concentration at 96 h,"[2]; urine sample SW U14, 96 hrs after LSD administration",0.01 ng/mL
